Experimental data published in patent publication US10106501B2, “Nuclear receptor modulators” (AbbVie Inc., priority 2015, dated 2018).

molecular target: T1, chimeric human RORγ-Gal4 receptor (Homo sapiens, UniProt P51449); assay: transient transactivation assay (RORγ-Gal4 luciferase reporter); assay type: cell-based; conditions: not given
T1 sequence (P51449 269-508 limits assumed): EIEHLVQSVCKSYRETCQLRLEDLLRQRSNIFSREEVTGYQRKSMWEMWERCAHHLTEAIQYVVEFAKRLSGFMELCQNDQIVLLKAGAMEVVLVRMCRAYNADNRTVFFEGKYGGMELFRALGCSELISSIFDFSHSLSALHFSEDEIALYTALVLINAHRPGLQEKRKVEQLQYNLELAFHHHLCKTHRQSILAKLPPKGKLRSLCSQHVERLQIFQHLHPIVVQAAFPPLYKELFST

Compound	IC50 [nM]
Cc1cc(C#N)cc2c1cc(Cc1c(Cl)ccc(CN3CCOCC3=O)c1Cl)n2C [Example AU, 2-(2,6-dichloro-3-((3-oxomorpholino)methyl)benzyl)-1,4-dimethyl-1H-indole-6-carbonitrile]	100 to 500

same assay, conditions: Cos-7 cells transfected with RORγ-Gal4 and 5Gal4 pGL3 TK Luc reporter; overnight incubation; T0901317 at 10^-5 M as reference; read-out: IC50

Compound	IC50 [nM]
CCOC(=O)CN1CCN(C(=O)c2ccc(Cl)c(Cc3cc4c(C)cc(C(F)(F)F)cc4n3C)c2Cl)CC1 [Example AV, ethyl 2-(4-(2,4-dichloro-3-((1,4-dimethyl-6-(trifluoromethyl)-1H-indol-2-yl)methyl)benzoyl)piperazin-1-yl)acetate]	100 to 500
Cc1cc(Br)cc2c1cc(Cc1c(Cl)ccc(C(=O)N3CCOCC3)c1Cl)n2C [Example AX, (3-((6-bromo-1,4-dimethyl-1H-indol-2-yl)methyl)-2,4-dichlorophenyl)(morpholino)methanone]	< 100
Cc1cc(N2CCOCC2)cc2c1cc(Cc1c(Cl)ccc(C(=O)N3CCOCC3)c1Cl)n2C [Example AY, (2,4-dichloro-3-((1,4-dimethyl-6-morpholino-1H-indol-2-yl)methyl)phenyl)(morpholino)methanone]	< 100
Cc1cc(C(F)(F)F)cc2c1cc(Cc1c(Cl)ccc(C(=O)N3CCC(C(=O)O)C(F)(F)C3)c1Cl)n2C (stereo not drawn) [Example AZ, 1-(2,4-dichloro-3-((1,4-dimethyl-6-(trifluoromethyl)-1H-indol-2-yl)methyl)benzoyl)-3,3-difluoropiperidine-4-carboxylic acid]	< 100
Cc1cc(C(F)(F)F)cc2c1cc(Cc1c(Cl)ccc(C(=O)N3CCC(C(=O)O)C(F)C3)c1Cl)n2C (stereo not drawn) [Example BA, 1-(2,4-dichloro-3-((1,4-dimethyl-6-(trifluoromethyl)-1H-indol-2-yl)methyl)benzoyl)-3-fluoropiperidine-4-carboxylic acid]	< 100
Cc1ncc(C(=O)N2CCOCC2)c(C)c1Cc1cc2c(C)cc(C(F)(F)F)cc2n1C [Example BB, (5-((1,4-dimethyl-6-(trifluoromethyl)-1H-indol-2-yl)methyl)-4,6-dimethylpyridin-3-yl)(morpholino)methanone]	500 to 1000
Cc1ncc(C(=O)N2CCC(CC(=O)O)CC2)c(C)c1Cc1cc2c(C)cc(C(F)(F)F)cc2n1C [Example BC, 2-(1-(5-((1,4-dimethyl-6-(trifluoromethyl)-1H-indol-2-yl)methyl)-4,6-dimethylnicotinoyl)piperidin-4-yl)acetic acid]	100 to 500
Cc1ncc(C(=O)N2CCC(C3COC3)CC2)c(C)c1C(=O)c1cc2c(C)cc(C#N)cc2n1C [Example BD, 2-[2,4-dimethyl-5-[4-(oxetan-3-yl)piperidine-1-carbonyl]pyridine-3-carbonyl]-1,4-dimethyl-indole-6-carbonitrile]	1000 to 10000
Cc1cc(C#N)cc2c1cc(Cc1c(Cl)cnc(C(=O)N3CCC(CC(=O)O)CC3)c1Cl)n2C [Example BG, 2-[1-[3,5-dichloro-4-[(6-cyano-1,4-dimethyl-indol-2-yl)methyl]pyridine-2-carbonyl]-4-piperidyl]acetic acid]	500 to 1000
Cc1cc(C(F)(F)F)cc2c1cc(Cc1c(Cl)ncc(C(=O)N3CCOCC3)c1Cl)n2C [Example BH, (4,6-dichloro-5-((1,4-dimethyl-6-(trifluoromethyl)-1H-indol-2-yl)methyl)pyridin-3-yl)(morpholino)methanone]	< 100
Cc1cc(C(F)(F)F)cc2c1cc(Cc1c(Cl)cn(CCC(=O)O)c(=O)c1Cl)n2C [Example BI, 3-(3,5-dichloro-4-((1,4-dimethyl-6-(trifluoromethyl)-1H-indol-2-yl)methyl)-2-oxopyridin-1(2H)-yl)propanoic acid]	1000 to 10000

Further lines, results first:

IC50 [nM]	Compound
< 100	Cc1cc(C(F)(F)F)cc2c1cc(Cc1c(Cl)ccc(C(=O)N3CCC(C(=O)O)C(C)C3)c1Cl)n2C (stereo not drawn) [Example B-1, 1-(2,4-dichloro-3-((1,4-dimethyl-6-(trifluoromethyl)-1H-indol-2-yl)methyl)benzoyl)-3-methylpiperidine-4-carboxylic acid]
< 100	Cc1cc(C(F)(F)F)cc2c1cc(Cc1c(Cl)ccc(C(=O)N3CCC(OCC(=O)O)CC3)c1Cl)n2C [Example B-2]
100 to 500	Cc1cc(C(F)(F)F)cc2c1cc(Cc1c(Cl)ccc(C(=O)N3CCC(C(=O)O)C3)c1Cl)n2C (stereo not drawn) [Example B-3]
100 to 500	Cc1cc(C(F)(F)F)cc2c1cc(Cc1c(Cl)ccc(C(=O)N3CC(C)(C(=O)O)C3)c1Cl)n2C [Example B-5]
< 100	Cc1cc(C(F)(F)F)cc2c1cc(Cc1c(Cl)ccc(C(=O)N3CCC(CC(=O)O)C3)c1Cl)n2C (stereo not drawn) [Example B-6]
< 100	Cc1cc(C(F)(F)F)cc2c1cc(Cc1c(Cl)ccc(C(=O)N3CCC(CC(=O)O)CC3)c1Cl)n2C [Example B-7]
< 100	Cc1cc(C(F)(F)F)cc2c1cc(Cc1c(Cl)ccc(C(=O)N3C[C@@H]4C(C(=O)O)[C@@H]4C3)c1Cl)n2C (stereo partly drawn) [Example B-8]
< 100	Cc1cc(C(F)(F)F)cc2c1cc(Cc1c(Cl)ccc(C(=O)N3CC(CC(=O)O)C3)c1Cl)n2C [Example B-9]
1000 to 10000	Cc1cc(C(F)(F)F)cc2c1cc(Cc1c(Cl)ccc(C(=O)N3CCC(O)C(C(=O)O)C3)c1Cl)n2C (stereo not drawn) [Example B-10]
100 to 500	Cc1cc(C(F)(F)F)cc2c1cc(Cc1c(Cl)ccc(C(=O)N3CCCC(C(=O)O)C3)c1Cl)n2C (stereo not drawn) [Example B-11]
100 to 500	Cc1cc(C(F)(F)F)cc2c1cc(Cc1c(Cl)ccc(C(=O)N3CCC(C)(C(=O)O)CC3)c1Cl)n2C [Example B-13]
100 to 500	Cc1cc(C(F)(F)F)cc2c1cc(Cc1c(Cl)ccc(C(=O)N3CCC(F)(C(=O)O)CC3)c1Cl)n2C [Example B-14]
1000 to 10000	COC[C@@H]1CN(C(=O)c2ccc(Cl)c(Cc3cc4c(C)cc(C(F)(F)F)cc4n3C)c2Cl)C[C@H]1C(=O)O [Example B-15]
100 to 500	Cc1cc(C(F)(F)F)cc2c1cc(Cc1c(Cl)ccc(C(=O)N3C[C@@]4(C(=O)O)CC[C@@H]3C4)c1Cl)n2C [Example B-16]
< 100	Cc1cc(C(F)(F)F)cc2c1cc(Cc1c(Cl)ccc(C(=O)N3CC4(CC(CC(=O)O)C4)C3)c1Cl)n2C [Example B-17]
< 100	Cc1cc(C(F)(F)F)cc2c1cc(Cc1c(Cl)ccc(C(=O)N3CC4(CC(C(=O)O)C4)C3)c1Cl)n2C [Example B-18]
< 100	Cc1cc(C(F)(F)F)cc2c1cc(Cc1c(Cl)ccc(C(=O)N3CCC(C(C)C(=O)O)CC3)c1Cl)n2C (stereo not drawn) [Example B-19]
< 100	Cc1cc(C(F)(F)F)cc2c1cc(Cc1c(Cl)ccc(C(=O)N3CCC(C(O)C(=O)O)CC3)c1Cl)n2C (stereo not drawn) [Example B-20]
< 100	Cc1cc(C(F)(F)F)cc2c1cc(Cc1c(Cl)ccc(C(=O)N3CCC(CC(=O)O)C(C)C3)c1Cl)n2C (stereo not drawn) [Example B-21]
< 100	Cc1cc(C(F)(F)F)cc2c1cc(Cc1c(Cl)ncc(C(=O)N3CCC(CC(=O)O)CC3)c1Cl)n2C [Example B-22]
< 100	Cc1cc(C(F)(F)F)cc2c1cc(Cc1c(Cl)ccc(C(=O)N3CCC(C(C)(C)C(=O)O)CC3)c1Cl)n2C [Example B-23]
< 100	Cc1cc(C(F)(F)F)cc2c1cc(Cc1c(Cl)ccc(C(=O)N3CCC(CCC(=O)O)CC3)c1Cl)n2C [Example B-24]
< 100	Cc1cc(C(F)(F)F)cc2c1cc(Cc1c(Cl)ccc(C(=O)N[C@H]3CC[C@@H](C(=O)O)CC3)c1Cl)n2C [Example B-25]
< 100	Cc1cc(C(F)(F)F)cc2c1cc(Cc1c(Cl)ccc(C(=O)N3CC[C@H](C(=O)O)[C@@H](C)C3)c1Cl)n2C [Example B-26]
